Assay results as given in patent US11154543B2, “P38 MAP kinase inhibitors for wound healing” (The Schepens Eye Research Institute, Inc., priority 2015, dated 2021).
Entries after “also recorded” stand apart in the source; their conditions may differ.

Experiments:
Assay type in all cases: cell-based
[1] = test system: human corneal fibroblasts (HCF); experiment: αSMA western blot in human corneal fibroblasts ± TGF-β1; conditions: for αSMA protein expression in the presence of TGF-β1: inhibitor 24 h, then inhibitor + TGF-β1 24 h, Birb-796 10 μM, SB239063 20 μM, SB203580 5 uM, compared with HCF+TGF-β1; for αSMA expression (ratio of αSMA to β actin), TGF-β1-induced increase: serum-free, 10 uM inhibitor pre-treatment 24 h, then inhibitor + 2 ng/ml TGF-β1 24 h, compared with TGF-β1 alone (lane 2)
Method: FIG. 1 is an image of a representative western blot of human corneal fibroblasts cultured with 1) Basic Medium (BM: Eagles minimum essential medium) for 48 hours; 2) BM for 24 hours, then BM+TGF-β1 for 24 hours, 3) BM for 24 hours, then BM+p38 inhibitor for 24 hours, and 4) BM+p38 Inhibitor for 24 hours, then BM+p38 inhibitor+TGFβ1. Graph of SMA corrected per lane with internal control (β-actin).
FIG. 4 is a graph depicting analysis of αSMA protein expression in human corneal fibroblasts cultured with 1) Basic Medium (BM: Eagles minimum essential medium) for 48 hours; 2) BM for 24 hours, then BM+TGF-β1 for 24 hours, 3) BM for 24 hours, then BM+Birb-796 for 24 hours, 4) BM+Birb-796 for 24 hours, then BM+Birb-796+TGF-β1 for 24 hours; 5) BM for 24 hours, then BM+SB239063 for 24 hours; 6) BM+SB239063 for 24 hours, then BM+SB239063+TGF-β1 for 24 hours; 7) BM for 24 hours, then BM+SB203580 for 24 hours; and 8) BM+SB203580 for 24 hours, then BM+SB203580+TGF-β1 for 24 hours. Graph of SMA corrected per lane with internal control (β-actin).
The protocol for alpha smooth muscle actin (αSMA) testing in human corneal fibroblasts (HCF) is shown below using treatment with/without p38 inhibitor (SB202190) as an example treatment. • 1. Grow HCF (human corneal fibroblast cells) in 100 mm dishes (×12). • 2. When cells get 60-70% confluent, rinse with PBS for 3 times. Then: • a. Put serum-free EMEM to starve cells overnight. (9×) • b. Put serum-free EMEM with 10 uM of p38 inhibitor (SB202190) overnight to pre-treat cells. (3×) • 3. Next day, treat cells as follows and incubate overnight: • c. 10 ml of serum-free EMEM (3×) • d. 10 ml of serum-free EMEM with 2 ng/ml of TGF-β1. (3×) • e. 10 ml of serum-free EMEM with 10 uM of p38 inhibitor (SB202190). (3×) • f. 10 ml of serum-free EMEM with 10 uM of p38 inhibitor (SB202190) and 2 ng/ml of TGF-β1 into pre-treated dishes (2b). (3×) • 4. Harvest cells by trypsinization and store cells at −80° C.
(§1) Samples were lysed with RIPA buffer and western blot analysis was performed, as previously described (Chung E H, IOVS 1999; 40:1952-8) with minor changes. Membranes with separated proteins were probed with anti-αSMA (alpha-smooth muscle actin) and β-Actin (beta-actin) according to the protocol in Example 1. After reaction with corresponding DyLight secondary antibodies, membranes were scanned on Odyssey and software was used to measure the bands (ImageJ, v. 1.5), and the data was analyzed and plotted (Prism 5.0; GraphPad software).
The above protocol was utilized to assay αSMA expression in human corneal and skin fibroblasts under different culture conditions, including in the presence of p38 inhibitor. […] In FIG. 3, high levels of αSMA indicate that most dermal fibroblasts in culture were already myofibroblast cells (lane 1).
Three additional p38 inhibitors shown in Table 1 below were test in HCF. […] The concentrations of these three inhibitors were not optimized and it is believed that with higher concentration of these p38 inhibitors, αSMA expression will be decreased to a greater extent.

[2] = test system: human corneal fibroblasts; experiment: Indirect immunofluorescence of SMA in human corneal fibroblasts; conditions: HCF; p38 inhibitor 24 h, then p38 inhibitor + TGF-β1; compared with TGF-β1 alone (FIG. 2B)
From the text: FIGS. 2A-2D are representative indirect immunofluorescent images of human corneal fibroblasts. […] Grey stripes staining=SMA and grey dots staining=DAPI, a nuclear counterstain. […] This is in agreement with the western blot in FIG. 1.

[3] = test system: human corneal myofibroblasts (T1-treated HCF); experiment: Reversal of αSMA in TGF-β1-differentiated human corneal myofibroblasts (western blot); conditions: HCF pre-treated 2 ng/ml T1 for 3 days
Method: FIGS. 7A and 7B show analysis of αSMA expression in HCF cultured as follows: 1) HCF: RM, 2) T1: RM+T1 (for 3 days), or 3) RM+T1 for 3 days, then RM±p38inh for 1 (D1), 2 (D2), or 3 days (D3). (A) Representative western blot.
In this experiment, we examined if p38 inhibitor could not only reduce, but reverse αSMA levels, thus converting myofibroblasts back to their fibroblastic phenotype. To do this, HCF were treated with 2 ng/ml of T1 for 3 days. This allowed for the majority of the HCF to differentiate to their myofibroblastic phenotype with high levels of αSMA expression. After rinsing with PBS three times, these T1-treated cells were split into two groups: 1) regular medium (RM) and 2) p38 inhibitor (p38inh) medium. Media was changed every day. Cells were harvested after 1, 2, or 3 days for αSMA analysis by WB. […] The T1 cells then were split into two groups, RM or p38inh, and the appropriate medium was applied. […] On day 3 (D3), αSMA levels in both media samples decreased.

human dermal fibroblasts = experiment: αSMA western blot in human dermal fibroblasts ± TGF-β1; conditions: BM+10% FBS, p38 inhibitor 24 h pre-treatment ± TGF-β1, compared with normal culture (lane 1) and T1 (lane 2)
Method: FIG. 3 is an image of a representative western blot of human dermal fibroblasts cultured with 1) Basic Medium (BM: Eagles minimum essential medium)+10% FBS for 48 hours; 2) BM+10% FBS for 24 hours, then BM+10% FBS+TGFβ1 for 24 hours, 3) BM+10% FBS for 24 hours, then BM+10% FBS+p38 inhibitor for 24 hours, and 4) BM+10% FBS+p38 Inhibitor for 24 hours, then BM+10% FBS+p38 inhibitor+TGF-β1. Graph of SMA corrected per lane with internal control (β-actin).
The protocol for alpha smooth muscle actin (αSMA) testing in human corneal fibroblasts (HCF) is shown below using treatment with/without p38 inhibitor (SB202190) as an example treatment. • 1. Grow HCF (human corneal fibroblast cells) in 100 mm dishes (×12). • 2. When cells get 60-70% confluent, rinse with PBS for 3 times. Then: • a. Put serum-free EMEM to starve cells overnight. (9×) • b. Put serum-free EMEM with 10 uM of p38 inhibitor (SB202190) overnight to pre-treat cells. (3×) • 3. Next day, treat cells as follows and incubate overnight: • c. […]
as §1, with “Membranes with separated proteins were probed with anti-αSMA (alpha-smooth muscle actin) and β-Actin (beta-actin) according to the protocol in Example 1.” left out, “software). […]” for “software).”

[4] = test system: human corneal 3-D constructs (HCF and their self-assembled matrix); experiment: αSMA western blot in human corneal 3-D stromal constructs
Method: FIG. 6 includes a bar graph and a western blot showing analysis of αSMA expression in human corneal 3-D constructs. Human Corneal Fibroblasts (HCF) were cultured as follows: 1) RM (Regular Medium: Eagle's minimum essential medium+10% FBS for 9 days); 2) T1 (RM for 24 hours, then RM+2 ng/ml of TGF-beta (T1) for 8 days); 3) p38 inhibitor (p38inh) (RM for 24 hours, then RM+10 μM of p38 inhibitor [SB202190] for 8 days); and 4) T1+p38inh (RM+SB202190 for 24 hours, then RM+SB202190+TGF-1 for 8 days). Graph of αSMA corrected per lane with internal control (β-actin). […] The western blot is shown in the upper right corner.
Data shown in previous figures were generated using cells in culture. […] The system a cell-based 3-D corneal stromal construct containing human corneal fibroblasts (HCF) and their self-assembled matrix. This art-recognized model mimics stromal development and wound healing. To test this, we cultured human corneal fibroblasts (HCF) in 0.5 mM Vitamin C±2 ng/ml TGF-β1 (T1) and/or 10 μM p38 inhibitor #1 (SB202190) for 9 days. The media was changed every day. After 9 days, the samples were harvested and analyzed for αSMA by western blot (WB). […] The data also indicate that p38 inhibitor(s) inhibit scar formation during corneal wound healing.

Cc1ccc(-n2nc(C(C)(C)C)cc2NC(=O)Nc2ccc(OCCN3CCOCC3)c3ccccc23)cc1 [Birb-796, Doramapimod]
αSMA protein expression in the presence of TGF-β1 [1]: significantly different

Oc1ccc(-c2nc(-c3ccc(F)cc3)c(-c3ccncc3)[nH]2)cc1 [SB202190, 4-(4-Fluorophenyl)-2-(4-hydroxyphenyl)-5-(4-pyridyl)1H-imidazole]
αSMA expression (ratio of αSMA to β actin), TGF-β1-induced increase [1]: inhibits the TGF-β1 induced increase in expression of αSMA
αSMA expression (ratio of αSMA to β actin), TGF-β1-induced increase ([1]; listed as p38 inhibitor): significantly different
αSMA staining / number of SMA-positive cells [2]: mitigated
αSMA levels on day 1 (D1) ([3]; then p38inh medium 1 day, compared with T1 control): continued to increase
αSMA levels on day 2 (D2) ([3]; then p38inh medium 2 days, compared with RM sample, p<0.05): significantly lower than the RM sample; also recorded: decreased significantly
αSMA levels on day 3 (D3) ([3]; then p38inh medium 3 days, compared with RM sample): continued to be lower than that in the RM sample
αSMA expression (corrected with β-actin) (human dermal fibroblasts): significantly decreased
αSMA expression (corrected with β-actin) (human dermal fibroblasts; listed as p38 inhibitor): significantly different
αSMA expression, T1 + p38 inhibitor versus control ([4]; 10 μM inhibitor + 2 ng/ml TGF-β1, 9 days (lane 4 vs lane 1)): decreased as compared with control
αSMA expression, T1 + p38 inhibitor versus T1 ([4]; 10 μM inhibitor + 2 ng/ml TGF-β1, 9 days (lane 4 vs lane 2), p<0.001): significantly lower than T1; also recorded: significantly different
αSMA expression, p38 inhibitor alone ([4]; 10 μM inhibitor, 9 days (lane 3), compared with control, p<0.05): significantly decreased; also recorded: significantly lower than others

C[S+]([O-])c1ccc(-c2nc(-c3ccc(F)cc3)c(-c3ccncc3)[nH]2)cc1 (centres unmarked) [SB203580, 4-(4′-Fluorophenyl)-2-(4′-methylsulfinylphenyl)-5-(4′-pyridyl)-imidazole]
αSMA protein expression in the presence of TGF-β1 [1]: significantly different

COc1nccc(-c2c(-c3ccc(F)cc3)ncn2C2CCC(O)CC2)n1 (stereo not drawn) [SB239063, trans-1-(4-Hydroxycyclohexyl)-4-(4-fluorophenyl)-5-(2-methoxypyridimidin-4-yl)imidazole]
αSMA protein expression in the presence of TGF-β1 [1]: significantly different
